Assay results published in patent US20050282818A1, “Ubiquitin ligase inhibitors” (Rigel Pharmaceuticals, Inc., priority 2004, published 2005).

Columns and labels:
TRAF6/Uev1A/Ubc13 = target: T1, TRAF6/Uev1A/Ubc13 (Homo sapiens, UniProt Q9Y4K3); test: TRAF6/Uev1A/Ubc13 plate-based ubiquitin ligase assay; format: biochemical
T1 sequence (Q9Y4K3 1-522): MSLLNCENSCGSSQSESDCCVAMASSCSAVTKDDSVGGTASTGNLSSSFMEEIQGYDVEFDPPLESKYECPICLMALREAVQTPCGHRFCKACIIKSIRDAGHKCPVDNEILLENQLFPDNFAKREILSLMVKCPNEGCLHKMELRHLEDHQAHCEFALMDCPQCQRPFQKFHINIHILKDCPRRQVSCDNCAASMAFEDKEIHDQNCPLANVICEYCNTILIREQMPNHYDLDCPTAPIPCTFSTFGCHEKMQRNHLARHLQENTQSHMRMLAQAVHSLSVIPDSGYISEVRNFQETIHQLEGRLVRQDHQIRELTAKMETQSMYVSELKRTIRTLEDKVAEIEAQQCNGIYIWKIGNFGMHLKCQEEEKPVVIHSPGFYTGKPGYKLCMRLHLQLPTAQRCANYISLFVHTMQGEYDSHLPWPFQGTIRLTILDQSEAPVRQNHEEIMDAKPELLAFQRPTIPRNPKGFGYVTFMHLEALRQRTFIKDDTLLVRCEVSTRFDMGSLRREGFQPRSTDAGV
In short: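 Ligase activity was read as luminescence from anti-Flag/HRP detection of Flag-ubiquitin bound to casein-blocked Ni-plates alongside His-ubiquitin after a 1 h room-temperature reaction. Buffer: 62.5 mM Tris pH 7.5, 6.25 mM MgCl2, 1.0 mM DTT, 2 μM ATP; E1, Uev1a/Ubc13 and TRAF6 added last to start. IC50s derived across compound concentrations.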

[1] = test system: ICAM-1 expression in A549 cells; test: ICAM assay (IL-1 induced ICAM-1/CD54 expression in A549 cells); format: cell-based, human
From the text: The expression of intercellular adhesion molecule (ICAM)-1 in endothelial cells is pivotal in supporting lymphocyte migration across the vascular endothelium. TNF/IL-1 induces the NF-kB pathway in which NF-kB acts as a transcription factor and activation of NF-kB induces ICAM expression. IkB inhibits NF-KB by binding to it and retaining NF-kB in the cytoplasm. Upon cytokine stimulation, several signaling molecule including TRAF6, IKKs, and TAK1 are activated which lead to the phosphorylation of IkB. Phosphorylated IkB is then ubiquitinated by the SCF complex and degraded by proteasome, thereby releasing NF-kB to translocate into the nucleus. In the nucleus, NF-kB binds to DNA and activates transcription of various genes that are involved in inflammation, cell survival, and apoptosis. The ICAM assay is a primary assay for HTS as well as a cell based assay for TRAF6 inhibitors.
The following materials are used 96-well plates; F12K complete medium that includes 10% FBS and 1% P/S (penicillin/streptomycin); 1×PBS; 5 ug/ml IL-1, Human CD54 (CALTAG Laboratory, Cat#MHCD5400-4); anti-mouse-IgG (Jackson Lab, Cat#115-035 146); and A549 cells.
Procedure. 10,000 A549 cells/well were seeded in 100 μl F12K complete medium in a 96-well white plate. The seeded plate was incubate at 37° C. incubator in 5% CO2 overnight. After the overnight incubation, 4 μl of diluted test compound was added and incubated for 1 hour at 37° C. After the 1 hour incubation, 4 μl of 25 ng/ml IL-1 was added to each well and the cells were stimulated at 37° C. for 4 hours.
After stimulation, the cells were stained with CD54 (1:1000 diluted with medium) and anti-mouse IgG (1:1100 diluted with medium) for 1 hour. Subsequently, the medium was removed and each well was washed with 200 μl of PBS three times. Detection of activity was performed by addition of 100 μl/well of lumino substrate.

APC11/APC2 = APC11/APC2 (Homo sapiens, UniProt Q9NYG5+Q9UJX6); test: APC-11/APC-2 ligase assay (APC auto ubiquitination); format: biochemical; settings: APC assay
Experimental: For the assays described below, the TRAF6/Uev1A/UBC13 assay is the biochemical plate-based assay of TRAF6 ligase activity using Ubc13 as the E2 enzyme. The gel-based assay is the biochemical solution-based TRAF6 ligase assay (by SDS-PAGE and Western blot) to confirm the plate-based ELISA assay. The APC assay is an assay which is another E3 ligase (APC2/APC11) biochemical assay.
E3 (His APC11/APC2— “APC”) auto ubiquitination was measured as described in U.S. patent application Ser. No. 09/826,312 (Publication No. U.S. 2002 0042083 A1), which is incorporated by reference in its entirety. Details of the protocol are described below. Activity in the presence of the compound was determined relative to a parallel control in which only DMSO was added. Values of the IC50 were typically determined using 6 or 8 different concentrations of the compound, although as few as 2 concentrations may be used to approximate the IC50 value.
Nickel coated 96 well plates (Pierce 15242) were blocked for 1 hour with 100 μl of blocking buffer at room temperature. The plates were washed 4 times with 225 μl of 1 […]PBS and 80 μl of the reaction buffer were added that contained 100 ng/well of Flag ubiquitin. To this, 10 μl of the test compound diluted in DMSO were added. After the test compound was added, 10 μl of E1 (human), E2 (Ubch5c), and APC in Protein Buffer was added to obtain a final concentration of 5 ng/well of E1, 20 ng/well of E2 and 100 ng/well of APC. The plates were shaken for 10 minutes and incubated at room temperature for 1 hour. After incubation, the plates were washed 4 times with 225 μl of 1×PBS and 100 μl/well of Antibody Mix were added to each well. The plates were incubated at room temperature for another hour after which they were washed 4 times with 225 μl of 1×PBS and 100 μl/well of Lumino substrate were added to each well. The luminescence was measured by using a BMG luminescence microplate reader. The Blocking Buffer (1% Casein in 1×PBS) was stored at 4° C. until use.
The reaction buffer consisted of 62.5 mM Tris pH 7.6 (Trizma Base—Sigma T 8524), 3 mM MgCl2 (Magnesium Chloride—Sigma M 2393), 1 mM DTT (Sigma D 9779), 2.5 mM ATP (Roche Boehringer Mann Corp. 635 316), 100 ng/well of Flag ubiquitin, 0.1% BSA (Sigma A 7906), and 0.05% Tween 20 (Sigma P 7949).
The Protein Buffer consisted of 20 mM Tris pH 7.6, 10% glycerol (Sigma G 5516) and 1 mM DTT.
The antibody mix consisted of 0.25% BSA (Sigma A 7906) in 1×PBS, 1/50,000 anti Flag (Sigma F 3165), 1/100,000 of anti Mouse IgG HRP (Jackson Imrunoresearch #115 035 146).
The substrate mix consisted of SuperSignal Substrate from Pierce (catalog number 37070ZZ) and was prepared by mixing 100 ml of the peroxide solution, 100 ml of the enhancer solution and 100 ml of Milli Q® water.

APC11/APC2, sequence (Q9NYG5 whole entry): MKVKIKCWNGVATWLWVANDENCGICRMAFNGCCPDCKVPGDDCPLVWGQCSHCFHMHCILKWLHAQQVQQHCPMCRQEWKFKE
APC11/APC2, sequence (Q9UJX6 whole entry): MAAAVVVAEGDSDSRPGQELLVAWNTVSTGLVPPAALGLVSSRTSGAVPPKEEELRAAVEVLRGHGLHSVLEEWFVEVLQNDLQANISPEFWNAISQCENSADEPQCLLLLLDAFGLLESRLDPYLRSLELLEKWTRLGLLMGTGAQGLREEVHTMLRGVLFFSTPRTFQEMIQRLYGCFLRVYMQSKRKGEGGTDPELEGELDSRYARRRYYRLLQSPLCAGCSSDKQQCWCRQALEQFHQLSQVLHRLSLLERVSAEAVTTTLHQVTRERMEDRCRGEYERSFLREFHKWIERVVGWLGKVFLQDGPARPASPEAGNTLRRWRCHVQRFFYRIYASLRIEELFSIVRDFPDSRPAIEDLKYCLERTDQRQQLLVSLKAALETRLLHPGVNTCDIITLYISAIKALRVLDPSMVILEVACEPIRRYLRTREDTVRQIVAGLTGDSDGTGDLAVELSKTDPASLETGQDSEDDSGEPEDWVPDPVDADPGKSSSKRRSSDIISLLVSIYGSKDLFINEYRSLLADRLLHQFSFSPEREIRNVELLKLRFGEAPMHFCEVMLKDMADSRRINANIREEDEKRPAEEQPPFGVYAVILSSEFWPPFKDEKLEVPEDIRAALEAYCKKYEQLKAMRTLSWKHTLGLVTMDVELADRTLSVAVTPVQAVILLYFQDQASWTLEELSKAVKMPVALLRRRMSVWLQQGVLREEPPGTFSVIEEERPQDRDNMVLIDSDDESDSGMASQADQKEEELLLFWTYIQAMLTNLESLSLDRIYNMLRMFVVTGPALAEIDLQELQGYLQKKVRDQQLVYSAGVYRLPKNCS

IC50 (TRAF6/Uev1A/Ubc13) [µM] | IC50 ([1]; Homo sapiens, A549, ICAM assay) [µM] | IC50 (APC11/APC2) [µM] | IC50 ([1]; ICAM assay) [µM] | SMILES
≥ 20 | 1 to 20 | ≥ 20 |  | Cc1cccc(C(C)C)c1NS(=O)(=O)c1ccc(Cl)c2nonc12 [compound 352, 7-chloro-N-(2-isopropyl-6-methylphenyl)-2,1,3-benzoxadiazole-4-sulfonamide]
≥ 20 | 1 to 20 | ≥ 20 |  | Cc1cccc(C)c1NS(=O)(=O)c1ccc(Cl)c2nonc12 [compound 353, 7-chloro-N-(2,6-dimethylphenyl)-2,1,3-benzoxadiazole-4-sulfonamide]
≥ 20 | 1 to 20 | ≥ 20 |  | Cc1ccc(NS(=O)(=O)c2ccc(Cl)c3nonc23)c(Cl)c1 [compound 354, 7-chloro-N-(2-chloro-4-methylphenyl)-2,1,3-benzoxadiazole-4-sulfonamide]
≥ 20 | ≥ 20 | ≥ 20 |  | Cc1cc(C)c(NS(=O)(=O)c2ccc(Cl)c3nonc23)c(C)c1 [compound 355, 7-chloro-N-mesityl-2,1,3-benzoxadiazole-4-sulfonamide]
≥ 20 | 1 to 20 | ≥ 20 |  | COc1ccccc1NS(=O)(=O)c1ccc(Cl)c2nonc12 [compound 356, 7-chloro-N-(2-methoxyphenyl)-2,1,3-benzoxadiazole-4-sulfonamide]
≥ 20 | ≥ 20 | ≥ 20 |  | O=S(=O)(Nc1c(F)cc(F)cc1F)c1ccc(Cl)c2nonc12 [compound 357, 7-chloro-N-(2,4,6-trifluorophenyl)-2,1,3-benzoxadiazole-4-sulfonamide]
≥ 20 | ≥ 20 | ≥ 20 |  | Cc1cc(F)ccc1NS(=O)(=O)c1ccc(Cl)c2nonc12 [compound 358, 7-chloro-N-(4-fluoro-2-methylphenyl)-2,1,3-benzoxadiazole-4-sulfonamide]
≥ 20 | 1 to 20 | ≥ 20 |  | COc1ccc(OC)c(NS(=O)(=O)c2ccc(Cl)c3nonc23)c1 [compound 359, 7-chloro-N-(2,5-dimethoxyphenyl)-2,1,3-benzoxadiazole-4-sulfonamide]
≥ 20 | 1 to 20 | ≥ 20 |  | COC(=O)c1ccc(Cl)cc1NS(=O)(=O)c1ccc(Cl)c2nonc12 [compound 360, methyl 4-chloro-2-{[(7-chloro-2,1,3-benzoxadiazol-4-yl)sulfonyl]amino}benzoate]

Second part, the compound before the results:

SMILES | IC50 (TRAF6/Uev1A/Ubc13) [µM] | IC50 ([1]; Homo sapiens, A549, ICAM assay) [µM] | IC50 (APC11/APC2) [µM] | IC50 ([1]; ICAM assay) [µM]
COC(=O)c1ccc(NS(=O)(=O)c2ccc(Sc3ccc(O)cc3)c3nonc23)cc1 [compound 335, methyl 4-{[(7-{[4-hydroxyphenyl]thio}-2,1,3-benzoxadiazol-4-yl)sulfonyl]amino}benzoate] | ≥ 20 | ≥ 20 | ≥ 20 | 
Clc1cc(Sc2cccc3cccnc23)cc2nonc12 [compound 336, 8-[(4-chloro-2,1,3-benzoxadiazol-6-yl)thio]quinoline] | ≥ 20 | ≥ 20 | ≥ 20 | 
O=C1OC2(CCN(S(=O)(=O)c3c(Cl)ccc4nonc34)CC2)c2ccccc21 [compound 337, 1′-{[5-chloro-(2,1,3-benzoxadiazol-4-yl)]sulfonyl}-3H-spiro[2-benzofuran-1,4′-piperidin]-3-one] | ≥ 20 | < 1 | ≥ 20 | 
O=S(=O)(Nc1ccccc1F)c1ccc(Cl)c2nonc12 [compound 345, 7-chloro-N-(2-fluorophenyl)-2,1,3-benzoxadiazole-4-sulfonamide] | ≥ 20 | 1 to 20 | ≥ 20 | 
O=S(=O)(Nc1ccccc1F)c1ccc(Nc2ccccc2F)c2nonc12 [compound 346, N-(2-fluorophenyl)-7-(2-fluorophenylamino)-2,1,3-benzoxadiazole-4-sulfonamide] | ≥ 20 | ≥ 20 | 1 to 20 | 
CC(C)c1ccccc1NS(=O)(=O)c1ccc(Cl)c2nonc12 [compound 347, 7-chloro-N-(2-isopropylphenyl)-2,1,3-benzoxadiazole-4-sulfonamide] | ≥ 20 | 1 to 20 | ≥ 20 | 
COc1cc(NS(=O)(=O)c2ccc(F)c3nonc23)c(OC)cc1Cl [compound 348, N-(4-chloro-2,5-dimethoxyphenyl)-7-fluoro-2,1,3-benzoxadiazole-4-sulfonamide] | ≥ 20 | 1 to 20 | ≥ 20 | 
COc1cc(Nc2ccc(S(=O)(=O)Nc3cc(OC)c(Cl)cc3OC)c3nonc23)c(OC)cc1Cl [compound 349, N-(4-chloro-2,5-dimethoxyphenyl)-7-([4-chloro-2,5-dimethoxyphenyl]amino)-2,1,3-benzoxadiazole-4-sulfonamide] | ≥ 20 |  | 1 to 20 | ≥ 20
Cc1c(NS(=O)(=O)c2ccc(Cl)c3nonc23)cccc1C(F)(F)F [compound 350, 7-chloro-N-(2-methyl-3-[trifluoromethyl]phenyl)-2,1,3-benzoxadiazole-4-sulfonamide] | ≥ 20 | 1 to 20 | ≥ 20 | 
Cc1ccc(F)cc1NS(=O)(=O)c1ccc(Cl)c2nonc12 [compound 351, 7-chloro-N-(5-fluoro-2-methylphenyl)-2,1,3-benzoxadiazole-4-sulfonamide] | ≥ 20 | 1 to 20 | ≥ 20 | 
